Values after ≈ are worked out from the molar mass of the structure shown. Square brackets hold non-standard residues; d marks the D form. Peptide text beside a SMILES is read from it. * marks the point of attachment. ξ: configuration not given here. C18 diacid = O=C(O)CCCCCCCCCCCCCCCCC(=O)*; Ile(3ξ) = CCC(C)[C@H](N)C(=O)O
Key:
[1] = Solubility in 100 mM glycylglycine buffer at pH 3.0 incubated for 18 hrs by UPLC analysis; assay type: physicochemical
[2] = Solubility in 100 mM bistrispropane buffer at pH 6.0 incubated for 18 hrs by UPLC analysis; assay type: physicochemical
[3] = Solubility in 100 mM glycylglycine buffer at pH 5.0 incubated for 18 hrs by UPLC analysis; assay type: physicochemical
[4] = Solubility in 100 mM bistrispropane buffer at pH 6.5 incubated for 18 hrs by UPLC analysis; assay type: physicochemical
[5] = Solubility in 100 mM bistrispropane buffer at pH 7.0 incubated for 18 hrs by UPLC analysis; assay type: physicochemical
[6] = Solubility in 100 mM bistrispropane buffer at pH 7.5 incubated for 18 hrs by UPLC analysis; assay type: physicochemical
[7] = Solubility in 100 mM bistrispropane buffer at pH 8.0 incubated for 18 hrs by UPLC analysis; assay type: physicochemical
[8] = target: T1, Amylin receptor AMY3; CALCR/RAMP3 (Homo sapiens, UniProt O60896+P30988); assay: Agonist activity at human amylin receptor expressed in BHK570 cells co-expressing RAMP3 assessed as increase in intracellular cAMP concentration incubated for 3 hrs in absence of albumin by CRE luciferase reporter gene assay; assay type: functional, cell-based
T1 sequence (P30988 whole entry): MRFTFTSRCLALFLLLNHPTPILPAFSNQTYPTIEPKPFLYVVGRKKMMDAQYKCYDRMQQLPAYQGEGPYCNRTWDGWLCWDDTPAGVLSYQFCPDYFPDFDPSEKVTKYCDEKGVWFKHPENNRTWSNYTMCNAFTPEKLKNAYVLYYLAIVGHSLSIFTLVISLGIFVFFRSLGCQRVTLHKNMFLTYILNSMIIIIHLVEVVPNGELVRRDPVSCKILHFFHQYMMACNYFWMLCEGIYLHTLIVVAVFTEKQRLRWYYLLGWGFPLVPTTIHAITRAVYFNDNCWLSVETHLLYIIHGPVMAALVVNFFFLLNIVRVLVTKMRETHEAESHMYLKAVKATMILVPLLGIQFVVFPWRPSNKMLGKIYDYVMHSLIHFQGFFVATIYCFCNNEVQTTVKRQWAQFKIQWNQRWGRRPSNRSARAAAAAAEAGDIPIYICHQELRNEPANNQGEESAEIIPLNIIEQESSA
T1 sequence (O60896 whole entry): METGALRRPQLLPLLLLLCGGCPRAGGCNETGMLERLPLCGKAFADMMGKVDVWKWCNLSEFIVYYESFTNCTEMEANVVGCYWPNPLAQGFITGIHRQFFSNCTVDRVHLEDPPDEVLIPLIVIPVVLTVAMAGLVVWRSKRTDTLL

Calcitonin receptor = target: T2, Calcitonin receptor (Homo sapiens, UniProt P30988); assay: Agonist activity at human calcitonin receptor expressed in BHK570 cells assessed as increase in intracellular cAMP concentration incubated for 3 hrs in absence of albumin by CRE luciferase reporter gene assay; assay type: functional, cell-based
T2 sequence (P30988 whole entry): T1 sequence (P30988 whole entry)

[9] = Solubility in 100 mM glycylglycine buffer at pH 4.0 incubated for 18 hrs by UPLC analysis; assay type: physicochemical

solubility at 18 h [1] [µM]	solubility at 18 h [2] [µM]	solubility at 18 h [3] [µM]	solubility at 18 h [4] [µM]	solubility at 18 h [5] [µM]	solubility at 18 h [6] [µM]	solubility at 18 h [7] [µM]	EC50 [8] [nM]	EC50 (Calcitonin receptor) [nM]	solubility at 18 h [9] [µM]	Compound
≥ 200	≥ 200	≥ 200	≥ 200	≥ 200	≥ 200	≥ 200				CC[C@@H](C)[C@H](NC(=O)[C@H](C)NC(=O)[C@@H](NC(=O)[C@H](CO)NC(=O)[C@@H](NC(=O)[C@H](CCC(=O)O)NC(=O)[C@H](CO)NC(=O)[C@H](C)NC(=O)[C@H](CCC(=O)O)NC(=O)CCCCCCCCCCCCCCCCC(=O)O)[C@H](C)CC)[C@@H](C)O)C(=O)N[C@@H](CC(C)C)C(=O)NCC(=O)N[C@@H](CCCNC(=N)N)C(=O)N[C@@H](CC(C)C)C(=O)N[C@@H](CO)C(=O)N[C@@H](C)C(=O)N[C@@H](CCC(=O)O)C(=O)N[C@@H](CC(C)C)C(=O)N[C@@H](Cc1cnc[nH]1)C(=O)N[C@@H](CCC(=O)O)C(=O)N[C@@H](CC(C)C)C(=O)N[C@@H](C)C(=O)N[C@H](C(=O)N[C@@H](CC(C)C)C(=O)N1CCC[C@H]1C(=O)N[C@@H](CCCNC(=N)N)C(=O)N[C@H](C(=O)N[C@@H](CCC(=O)O)C(=O)N[C@H](C(=O)NCC(=O)N1CCC[C@H]1C(=O)N[C@@H](CCC(=O)O)C(=O)N[C@@H](CO)C(=O)N1CCC[C@H]1C(N)=O)[C@@H](C)O)[C@@H](C)O)[C@@H](C)O
≥ 200	≥ 200	7 (≈ 27.6 µg/mL)	≥ 200	≥ 200	≥ 200	≥ 200				CC(C)C[C@H](NC(=O)[C@H](CCCNC(=N)N)NC(=O)CNC(=O)[C@H](CC(C)C)NC(=O)[C@@H](NC(=O)[C@H](C)NC(=O)[C@@H](NC(=O)[C@H](CO)NC(=O)[C@H](CC(C)C)NC(=O)[C@H](CCC(=O)O)NC(=O)[C@H](CO)NC(=O)[C@H](C)NC(=O)CC[C@H](NC(=O)CCCCCCCCCCCCCCCCCCC(=O)O)C(=O)O)[C@@H](C)O)C(C)C)C(=O)N[C@@H](CO)C(=O)N[C@@H](CCC(N)=O)C(=O)N[C@@H](CCC(=O)O)C(=O)N[C@@H](CC(C)C)C(=O)N[C@@H](Cc1cnc[nH]1)C(=O)N[C@@H](CCC(=O)O)C(=O)N[C@@H](CC(C)C)C(=O)N[C@@H](CCC(N)=O)C(=O)N[C@H](C(=O)N[C@@H](Cc1ccc(O)cc1)C(=O)N1CCC[C@H]1C(=O)N[C@@H](CCCNC(=N)N)C(=O)N[C@H](C(=O)N[C@@H](CCC(=O)O)C(=O)N[C@H](C(=O)NCC(=O)N[C@@H](CO)C(=O)NCC(=O)N[C@H](C(=O)N[C@@H](Cc1ccc(O)cc1)C(N)=O)[C@@H](C)O)[C@@H](C)O)[C@@H](C)O)[C@H](C)O
≥ 200	≥ 200	≥ 200	≥ 200	≥ 200	≥ 200	≥ 200	0.01	0.005		CC[C@H](C)[C@H](NC(=O)[C@H](C)NC(=O)[C@@H](NC(=O)[C@H](CO)NC(=O)[C@@H](NC(=O)[C@H](CCC(=O)O)NC(=O)[C@H](CO)NC(=O)[C@H](C)NC(=O)[C@H](CCC(=O)O)NC(=O)CCCCCCCCCCCCCCCCC(=O)O)[C@@H](C)CC)[C@@H](C)O)C(=O)N[C@H](C(=O)NCC(=O)N[C@@H](CCCNC(=N)N)C(=O)N[C@@H](CC(C)C)C(=O)N[C@@H](CO)C(=O)N[C@@H](C)C(=O)N[C@@H](CCC(=O)O)C(=O)N[C@@H](CC(C)C)C(=O)N[C@@H](Cc1cnc[nH]1)C(=O)N[C@@H](CCC(=O)O)C(=O)N[C@@H](CC(C)C)C(=O)N[C@@H](C)C(=O)N[C@H](C(=O)N[C@@H](CC(C)C)C(=O)N1CCC[C@H]1C(=O)N[C@@H](CCCNC(=N)N)C(=O)N[C@H](C(=O)N[C@@H](CCC(=O)O)C(=O)N[C@H](C(=O)NCC(=O)N1CCC[C@H]1C(=O)N[C@@H](CCC(=O)O)C(=O)N[C@@H](CO)C(=O)N1CCC[C@H]1C(N)=O)[C@@H](C)O)[C@@H](C)O)[C@@H](C)O)[C@@H](C)CC ({C18 diacid}-EASEISTAIIGRLSAELHELATLPRTETGPESP-NH2)
							0.011	0.007		CC(C)C[C@H](NC(=O)[C@H](C)NC(=O)[C@H](C)NC(=O)[C@@H](NC(=O)[C@H](CO)NC(=O)[C@H](CC(C)C)NC(=O)[C@H](CCC(=O)O)NC(=O)[C@H](CO)NC(=O)[C@H](C)NC(=O)[C@H](CCC(=O)O)NC(=O)CCCCCCCCCCCCCCCCC(=O)O)[C@@H](C)O)C(=O)NCC(=O)N[C@@H](CCCNC(=N)N)C(=O)N[C@@H](CC(C)C)C(=O)N[C@@H](CO)C(=O)N[C@@H](C)C(=O)N[C@@H](CCC(=O)O)C(=O)N[C@@H](CC(C)C)C(=O)N[C@@H](Cc1cnc[nH]1)C(=O)N[C@@H](CCC(=O)O)C(=O)N[C@@H](CC(C)C)C(=O)N[C@@H](C)C(=O)N[C@H](C(=O)N[C@@H](Cc1ccc(O)cc1)C(=O)N1CCC[C@H]1C(=O)N[C@@H](CCCNC(=N)N)C(=O)N[C@H](C(=O)N[C@@H](CCC(=O)O)C(=O)N[C@H](C(=O)NCC(=O)N1CCC[C@H]1C(=O)N[C@@H](CCC(=O)O)C(=O)N[C@@H](CO)C(=O)N1CCC[C@H]1C(N)=O)[C@@H](C)O)[C@@H](C)O)[C@@H](C)O ({C18 diacid}-EASELSTAALGRLSAELHELATYPRTETGPESP-NH2)
≥ 200	≥ 200	≥ 200	≥ 200	≥ 200	≥ 200	≥ 200			≥ 200	CCC(C)[C@H](NC(=O)[C@@H](NC(=O)[C@H](C)NC(=O)[C@@H](NC(=O)[C@H](CO)NC(=O)[C@H](CC(C)C)NC(=O)[C@H](CCC(=O)O)NC(=O)[C@H](CO)NC(=O)[C@H](C)NC(=O)[C@H](CCC(=O)O)NC(=O)CCCCCCCCCCCCCCCCC(=O)O)[C@@H](C)O)C(C)C)C(=O)NCC(=O)N[C@@H](CCCNC(=N)N)C(=O)N[C@@H](CC(C)C)C(=O)N[C@@H](CO)C(=O)N[C@@H](C)C(=O)N[C@@H](CCC(=O)O)C(=O)N[C@@H](CC(C)C)C(=O)N[C@@H](Cc1cnc[nH]1)C(=O)N[C@@H](CCC(=O)O)C(=O)N[C@@H](CC(C)C)C(=O)N[C@@H](C)C(=O)N[C@H](C(=O)N[C@@H](CC(C)C)C(=O)N1CCC[C@H]1C(=O)N[C@@H](CCCNC(=N)N)C(=O)N[C@H](C(=O)N[C@@H](CCC(=O)O)C(=O)N[C@H](C(=O)NCC(=O)N1CCC[C@H]1C(=O)N[C@@H](CCC(=O)O)C(=O)N[C@@H](CO)C(=O)N1CCC[C@H]1C(N)=O)[C@@H](C)O)[C@@H](C)O)[C@@H](C)O (stereo not given in full) ({C18 diacid}-EASELSTAV[Ile(3ξ)]GRLSAELHELATLPRTETGPESP-NH2)
	≥ 200		≥ 200	≥ 200	≥ 200	≥ 200	0.023	0.054		CC(C)C[C@H](NC(=O)[C@H](CCCNC(=N)N)NC(=O)CNC(=O)[C@H](CC(C)C)NC(=O)[C@@H](NC(=O)[C@H](C)NC(=O)[C@@H](NC(=O)[C@H](CO)NC(=O)[C@@H](NC(=O)[C@H](CCC(=O)O)NC(=O)[C@H](CO)NC(=O)[C@H](C)NC(=O)[C@H](CCC(=O)O)NC(=O)CCCCCCCCCCCCCCCCC(=O)O)C(C)C)[C@@H](C)O)C(C)C)C(=O)N[C@@H](CO)C(=O)N[C@@H](C)C(=O)N[C@@H](CCC(=O)O)C(=O)N[C@@H](CC(C)C)C(=O)N[C@@H](Cc1cnc[nH]1)C(=O)N[C@@H](CCC(=O)O)C(=O)N[C@H](C(=O)N[C@@H](C)C(=O)N[C@H](C(=O)N[C@@H](CC(C)C)C(=O)N1CCC[C@H]1C(=O)N[C@@H](CCCNC(=N)N)C(=O)N[C@H](C(=O)N[C@@H](CCC(=O)O)C(=O)N[C@H](C(=O)NCC(=O)N1CCC[C@H]1C(=O)N[C@@H](CCC(=O)O)C(=O)N[C@@H](CO)C(=O)N1CCC[C@H]1C(N)=O)[C@@H](C)O)[C@@H](C)O)[C@@H](C)O)C(C)C ({C18 diacid}-EASEVSTAVLGRLSAELHEVATLPRTETGPESP-NH2)
